We go through 1 compound from patent publication EP0247900A1, “Topical methotrexate preparation for the treatment of hyperproliferative epithelial disease” (THE REGENTS OF THE UNIVERSITY OF CALIFORNIA, priority 1986, dated 1987).

The subject of data set [1] is psoriatic epidermal DNA synthesis. As to the kind of experiment: Intradermal administration of MTX. The data set is classed as in vivo. Particulars: administered intradermally, compared with systemic MTX. The source says: Thus, it has been discovered that MTX or its analogs can be administered topically in an effective manner to skin afflicted with a hyperproliferative epithelial disease avoiding, therefore, the serious side effects associated with systemic MTX administration.

Data set [2] has as its system epidermal DNA synthesis. As to the kind of experiment: In vivo epidermal labeling index (DNA synthesis) in the mini-pig model. Set-up: species or system Mini-pigs. Conditions: for Epidermal Labeling Index: applied daily for 7 days, mini-pig dorsal skin. On the procedure:
The formulations of Example III were tested for effect on in vivo DNA synthesis in the mini-pig model. Mini-pig skin closely resembles human skin and the effect of a drug on epidermal cell proliferation is a recognized test for the effectiveness of therapeutic protocols for hyperproliferative skin disease.
Mini-pigs were obtained from Charles River Laboratories, Inc. (Wilmington, MA). Drug preparations were applied to small areas of dorsal skin (ca 1 inch square) according to the selected application schedules. Six hours following the last drug application, tritiated thymidine was injected into the drug treatment sites for autoradiographic assessment of epidermal proliferation as measured by epidermal labeling index. Weinstein & and Van Scott, (1965) J. Invest. Derm. 44:413
A vehicle containing various concentrations of MTX was applied daily for 7 days. Tritiated deoxyuridine was injected into the treatment sites on day 7, as well as in untreated control area. DNA synthesis was measured as described in Example II.
Formulations were applied daily for 7 days. […] Autoradiographs were scored at 4 wk.

In another data set the test system is psoriasis. Particulars: 0.1% and 0.5% MTX in vehicle with 2.5% C-10-methylsulfoxide, six patients, daily for nine days; cited from earlier work.
The next data set has as its system hairless mouse skin. As to the kind of experiment: Skin changes after topical MTX in normal and essential fatty acid deficient hairless mice. The class given is in vivo, HRS/J albino hairless mice. Particulars: three daily applications of 2% MTX in Vehicle N, untreated abdominal skin not similarly affected. On the procedure: (§1) HRS/J albino hairless mice, age 2-3 months, were used for these experiments. For induction of the […] fatty acid deficiency, 3-week-old animals were fed an essential fatty acid deficient diet (Teklad) for 60 days.
Topical MTX preparations at various concentrations or vehicle control in the amount of 0.05 ml were applied to the backskin area of 1.5 cm by 3 cm daily for 1 or 3 days. Six to ten mice were used for each treatment group. Tritiated deoxyuridine was utilized as a precursor for assaying the effects of methotrexate on the de novo pathway for epidermal DNA synthesis. The incorporation of tritiated deoxyuridine into DNA depends on the normal functioning of dihydrofolate reductase which is blocked by methotrexate. At selected time points after single or repeated topical MTX applications, mice were injected IP with tritiated deoxyuridine (50-100 uCi) for measurement of epidermal DNA synthesis in treated backskin to determine the local effect of MTX. DNA synthesis was simultaneously measured in untreated abdominal skin of Vehicle N and MTX-treated animals to determine systemic effects of MTX at a distant site. […] Results of epidermal DNA synthesis were calculated as counts/minute/ug of DNA. The effects of MTX treatment on DNA synthesis of the back and abdomen were expressed as percentage of the DNA synthesis of Vehicle N treated back skin and untreated abdomin in control animals. […]

For data set [3], the system named is epidermal DNA synthesis. As to the kind of experiment: In vivo epidermal DNA synthesis (tritiated deoxyuridine incorporation) after topical MTX in hairless mice. Set-up: species or system HRS/J albino hairless mice. Conditions: for suppression of epidermal DNA synthesis in treated back skin: compared to Vehicle N treated control.
Text: Deoxyuridine (6-^3H) (25 Ci/mmol) was obtained from New England Nuclear. Other materials were obtained as described in Example I.
as §1
Six to ten mice were used for each treatment group. Tritiated deoxyuridine was utilized as a precursor for assaying the effects of methotrexate on the de novo pathway for epidermal DNA synthesis. The incorporation of tritiated deoxyuridine into DNA depends on the normal functioning of dihydrofolate reductase which is blocked by methotrexate. At selected time points after single or repeated topical MTX applications, mice were injected IP with tritiated deoxyuridine (50-100 uCi) for measurement of epidermal DNA synthesis in treated backskin to determine the local effect of MTX. DNA synthesis was simultaneously measured in untreated abdominal skin of Vehicle N and MTX-treated animals to determine systemic effects of MTX at a distant site. One hour after administration of isotope, animals were sacrificed by cervical dislocation, and treated backskin and untreated abdominal skin was obtained. Epidermis was removed after incubating the skin specimens for 1 hr at 37°C in 2 M sodium bromide. DNA was extracted and assayed using the technique described by Halprin et al (1979) J Invest Derm 73:359-363. Results of epidermal DNA synthesis were calculated as counts/minute/ug of DNA. The effects of MTX treatment on DNA synthesis of the back and abdomen were expressed as percentage of the DNA synthesis of Vehicle N treated back skin and untreated abdomin in control animals.

For data set [4] the following is noted: prior-art topical MTX preparations, in vitro and in vivo; cited from earlier work.
Data set [5] is described as follows: In vitro percutaneous penetration of MTX in glass diffusion cells. On the procedure:
Methotrexate was obtained from Lederle Laboratories, Pearl River, NY. Methotrexate (3',5',7-^3H)sodium (250 mCi/mmol) was obtained from Amersham and prior to use was purified by chromatography on thin-layer cellulose plates in 0.006 M potassium phosphate buffer, pH 6.0. Vehicle N was obtained from the Neutrogena Corporation. Los Angeles, CA.
The percutaneous penetration of MTX was measured in glass diffusion cells as previously described. McCullough et al (1976) J Invest Derm 66:103-107. Excised human skin obtained from abdominoplasty was used for these studies. First, 0.5 ml containing 10 µCi methotrexate-^3H and cold methotrexate to give a final concentration of 2% in various vehicles was applied to the epidermal surface (0.2 ml/cm^2). A total of […] methotrexate was applied to each diffusion cell. The dermal reservoir contained phosphate buffered saline. Three diffusion cells were run for each vehicle. Diffusion cells were incubated with constant stirring at 28°C. Methotrexate penetration was followed at various time points up to 48 hr by liquid scintillation counting. The test solution was removed after the 48 hr incubation period, and the epidermal surface was rinsed three times with vehicle in which the drug being tested was dissolved. […] The epidermis was separated by heating the skin for 1 min on a hot plate at 60°C. MTX was extracted from the epidermis and dermis utilizing the techniques described by Werkheiser et al (1962) J Pharmacol Exp Ther 137:162-166, which specifically disassociates MTX from cellular bound proteins. The stratum corneum was removed by repeated stripping with cellophane tape until the skin glistened.
In vitro percutaneous penetration studies were carried out according to the methods of Example I with formulations of a topical gel containing about 3% Azone and various concentrations of MTX.
Employing the methods described in Example I, various vehicles containing 2% by weight of tritiated MTX were tested in vitro on human skin.
Additional studies with the mini-pig model, as described in Example IV, were conducted to test various carriers with different concentrations of MTX and Azone. Formulations were applied daily for 7 days. Three sites per treatment area were injected with ^3H-UdR. Autoradiographs were scored at 4 wk. Techniques as described in Examples I and II were employed to measure percutaneous penetration and DNA synthesis.
Various vehicle formulations were evaluated in vitro at various MTX concentrations for penetration of MTX into the epidermis. Penetration was evaluated as described in Example I. Unless otherwise noted, all vehicles were a gel formulation that contained 3% Azone.

The mark [6] stands for this setting: 0.1% Methotrexate in topical gel containing about 3% Azone.
The mark [7] stands for this setting: 0.5% Methotrexate in topical gel containing about 3% Azone.
[8] abbreviates: 1.0% Methotrexate in topical gel containing about 3% Azone.

As to `CN(Cc1cnc2nc(N)nc(N)c2n1)c1ccc(C(=O)N[C@@H](CCC(=O)O)C(=O)O)cc1` [MTX, Methotrexate], the “biochemical effects and biological actions” value in data set [1] was “same biochemical effects (inhibition of psoriatic epidermal DNA synthesis) and biological actions (mitotic inhibition and damaged cell production) as systemic MTX”. Also, the “Epidermal Labeling Index” value came to 0.0 ± 0.0% in the data set with epidermal DNA synthesis [2] (0.5% Methotrexate in gel with about 3% Azone) and 0.8 ± 1.4% in the data set with epidermal DNA synthesis [2] (1.0% Methotrexate in gel with about 3% Azone). The “labeling intensity (rate of DNA synthesis)” value in the data set with epidermal DNA synthesis [2] (0.5% and 1.0% MTX in Azone gel, daily for 7 days, compared to the vehicle control) is “slight decrease in labeling intensity”. Further, the clinical improvement result with psoriasis is “no significant improvement in any of the patients”. The “effect on epidermis of treated skin” value with hairless mouse skin was “marked epidermal atrophy”. The “effect on DNA synthesis in back skin and untreated abdominal skin” value in the data set on epidermal DNA synthesis [3] (four daily applications of MTX in Vehicle N) was “total suppression of DNA synthesis”. Also, the “effect on DNA synthesis” value is listed as “ineffective” in the data set with epidermal DNA synthesis [3] (single application of MTX in Vehicle N) and “no local or systemic effect” in the data set on epidermal DNA synthesis [3] (three daily applications of MTX in Vehicle N at concentrations lower than 1%). For the same compound, in the data set with epidermal DNA synthesis [3] (three daily applications of 1% MTX in Vehicle N, 6 hr after the last treatment), the “effect on DNA synthesis in treated skin” value is given as “produced inhibition of DNA synthesis”. In the data set on epidermal DNA synthesis [3] (three daily applications of 2% MTX in Vehicle N, at 54 hr (6 hr after the last treatment)), the “systemic effect on DNA synthesis in untreated abdominal skin” value was “no significant (p < 0.001) systemic methotrexate effect”. The “suppression of epidermal DNA synthesis in treated back skin” value in the data set on epidermal DNA synthesis [3] (three daily applications of 2% MTX in Vehicle N, at 54 hr) worked out at 50%; in the data set on epidermal DNA synthesis [3] (three daily applications of 2% MTX in Vehicle N, at 72 hr) it was 75%. The “local and systemic effect on DNA synthesis” value with epidermal DNA synthesis [3] (three daily applications of 2% MTX in Vehicle N, at 72 hr, 24 hr after the last treatment) was “both local and systemic effects were obtained”. Also, the “effect on epidermal DNA synthesis” value in the data set on epidermal DNA synthesis [3] (topical MTX (0.5%) in N-decylmethylsulfoxide) is “no effect on epidermal DNA synthesis”. Also, in data set [4], the “percutaneous penetration of human skin” value is on record as “negligible percutaneous penetration”. Moreover, the “Cumulative Penetration 48 hr” value in data set [5] (setting [6]) was 0.6 ± 0.2 µg; in data set [5] (setting [7]), 7.5 ± 1.4 µg; in data set [5] (setting [8]), 18.7 ± 6.1 µg. Besides, the “Epidermal Content” value in data set [5] (setting [6]) was found to be 3.9 ± 0.3 µg; in data set [5] (setting [7]), 24.1 ± 8.1 µg; in data set [5] (setting [8]), 36.0 ± 11.7 µg.
